# Measured values from US20240016744A1, “NALTREXONE AND RISPERIDONE COMBINATION SUSTAINED-RELEASE COMPOSITION” (SHENZHEN SCIENCARE MEDICAL INDUSTRIES CO.,, priority 2020, published 2024).
# Test system: methylamphetamine-induced behavioral sensitization (spontaneous activities of the mice)
# Test: Animal pharmacodynamic evaluation: methylamphetamine-induced behavioral sensitization, spontaneous activity
# Format: in vivo, SD mice
# Details: methylamphetamine 2 mg/kg i.p., no implant, from day 7; FIG. 9
# Excerpt: All mice were bred under the same conditions. The product of the present disclosure was surgically implanted into each mouse in a model group before an experiment. Except implantation of the product of the present disclosure, other experimental conditions of a positive control group were the same as those of the model group. Mice in a negative control group were normally bred without undergoing experimental treatment. Behavioral differences among the model group, the positive control group, and the negative control group were observed during the experiment.
# 36 SD mice weighing […], half male and half female, were taken. The mice were randomly divided into 3 groups: a positive control group, a negative control group, and a model group. The compound sustained-release preparation (prepared in Example 1) was implanted into the back of each mouse in the model group before administration, and a challenge experiment was carried out on the second day after surgery.
# During the formative period, methylamphetamine (2 mg/kg) was daily intraperitoneally injected into each mouse in the positive control group and the model group, an equal amount of normal saline was intraperitoneally injected into each mouse in the negative control group for 7 consecutive days. During the conversion period, the drug was withdrawn for 7 days without any treatment. […]
structure (smiles),measurement,value
CN[C@@H](C)Cc1ccccc1 [methylamphetamine],activities of the mice in the positive control group (behavioral sensitization),significantly increased (P<0.05)
